“Also recorded” adds a separate entry of the source. Where two headings read alike, the source gives them in different places. Each block holds one compound with its values, some of them ahead of it.
Legend:
[1] = target: brain NOS (cerebellar NOS) (Rattus norvegicus, UniProt P29476); assay: inhibition of NOS activity, conversion of [^3 H]arginine to [^3 H]citrulline, cerebellar homogenates/supernatants in vitro; conditions: for inhibition of brain NOS, in words: guanidinoalkanoic acid series
From the text: (§1) Inhibitors of NOS are compounds which compete for the substrate binding site of NOS or other sites on the enzyme, and include both reversible and irreversible inhibitors. The present invention contemplates the use of any physiologically acceptable inhibitor which inhibits NOS activity. The effectiveness of a compound, and its relative potency as an NOS inhibitor, can be tested and routinely determined by measuring inhibition of NOS activity by monitoring the conversion of arginine to citrulline by NOS in, for example, cerebellar homogenates. A reduction in citrulline formation indicates inhibitory activity of the compound. The percent reduction in citrulline formation, compared to the amount of citrulline formed in the absence of the compound being tested, indicates the potency of the compound as an NOS inhibitor.
Rat cerebella were homogenized in 10 vols. (w/v) […] Tris (pH 7.4), 2 mM EDTA. Homogenates were centrifuged at 10,000×g for 15 minutes at 4° C. Supernatant preparations were used in the enzyme assays. Cerebellar tissue was dialyzed (Spectra/Por, 10,000 MWCO, EDTA-treated cellulose dialysis tubing) against 20 mM Tris (pH 7.4), 2 mM EDTA (300 ml×2) for 24 hours at 4° C.
Cerebellar homogenates were incubated with arginine derivatives for one hour at 4° C., and dialyzed overnight. Aliquots (25 μg protein) were assayed for NOS activity before and after dialysis.
(§2) NOS activity was measured by monitoring the conversion of [^3 H]arginine to [^3 H]citrulline as described by Bredt and Snyder (Proc. Natl. Acad. Sci USA (1990) 87682-685). Briefly, enzyme assays contained 25 μl of soluble tissue, 50 μl of […] [^3 H]arginine and 1 mM NADPH, and 25 μl of 3 mM CaCl2. After a 15 minute incubation at room temperature, the assays were terminated with 3 ml of 20 mM Hepes (pH 5.5) with 2 mM EDTA, and were applied to 0.5 ml columns of Dowex AG50WX8 (Na^+ form). [^3 H]citrulline was quantified by liquid scintillation spectroscopy of the 3 ml flow-through.
(§3) Accordingly, the effects of 2, 4 and 24 hours of preincubations of cerebellar supernatants (FIG. 2A) and activated macrophage homogenates (FIG. 2B) with NO2 Arg were examined. The preincubation was conducted at 4° C. since NOS is unstable at higher temperature for long periods of time. Enzymatic incubation was conducted for only 5 minutes to minimize any reaction of the inhibitor with the enzyme in the course of the incubation procedure.
Cerebellar supernatants were made as described in Example 1.

[2] = system: macrophage NOS (activated macrophage homogenates); assay: inhibition of NOS activity in activated macrophage homogenates in vitro; assay type: biochemical; conditions: guanidinoalkanoic acid series
From the text: as §1, §2, §3
Macrophages were activated as described by Tayeh and Marletta (J. Biol. Chem. (1989) 264:19654-19658) with 3.5 ng/ml LPS from E. coli and 5 units/ml recombinant murine γ-interferon for 24 hours at 37° C. Cells were homogenized in 20 mM Hepes (pH 7.4).

[3] = system: brain or macrophage enzyme (NOS); assay: NOS inhibition and brain/macrophage selectivity of arginine, nitroarginine and guanidinoalkanoic acid analogs; assay type: biochemical
cortical cell cultures [4] = assay: cells; assay type: cell-based, rat; conditions: for reversal of NO2 Arg protection from NMDA cytotoxicity: L-Arg 1 mM with 100 μM NO2 Arg, homoarginine, D-Arg, FIG. 7; for EC50: cortical cultures; for effect on NMDA-induced cell death: 300 μM NMDA (with 10 μM glycine), Hb at 500 μM; for effect on SNP-induced cell death: Hb 500 μM
Description: Primary dissociated cell cultures were prepared from fetal rats (13-to 14-day gestation for cortex and caudate-putamen cultures and 19- to 20-day gestation for hippocampal cultures). The tissue of interest was dissected, incubated for 15 minutes in 0.027% trypsin in Brooks-Logan solution (5% phosphate-buffered saline/0.04M sucrose/10 mM Hepes/0.03M glucose, pH 7.4), and then transferred to modified Eagle's medium (MEM) 10% horse serum/10% fetal bovine serum/2 mM glutamine for trituration. Dissociated cells were plated at a density of 3-4×10^5 cells per well in polyornithine-coated 15-mm multiwell plates. After 4 days the cells were treated with 10 μg of 5-fluoro-2'-deoxyuridine to prevent proliferations of noneuronal cells. Cells were maintained in MEM/5% horse serum/2 mM glutamine in 8% CO2 /humidified atmosphere at 37° C. The medium was changed twice weekly. Mature neurons (3-4 weeks) were used.
Cells were exposed to excitatory amino acids according to the method of Koh and Choi (J. Neurosci. (1988) 8:2153-2163). Before exposure, the cells were washed three times with Tris-buffered control salt solution (CSS), containing 120 mM NaCl/5.4 mM KCl/1.8 mM CaCl2 /25 mM Tris hydrochloride, pH 7.4 at room temperature/15 mM glucose. Brief exposures to glutamate, NMDA (plus 10 μM glycine), quisqualate, and sodium nitroprusside (SNP) were performed for 5 minutes in CSS. The exposure solution was then washed away and replaced by MEM with 21 mM glucose; then the cells were placed in an incubator for 20-24 hour. Long exposures to kainate were performed in MEM/21 mM glucose for 20-24 hour in the incubator. After exposure to the excitatory amino acids, the medium was replaced by CSS/0.4% trypan blue, which stains nonviable cells. Two to four photographs (10-20×) were made of each well, and viable versus nonviable cells were counted. The cytotoxicity data represent 6-24 separate wells assayed per data point, with ≈500-1500 cells counted per well. Neuronal cell injury was also assessed by measuring the release of lactate dehydrogenase by damaged or destroyed cells into the extracellular fluid following drug exposure.
Before initiating cytotoxicity experiments with NOS inhibitors, the potency of NMDA applied for 5 minutes in inducing cell death was evaluated by examining exclusion of 0.4% trypan blue by viable cells or measuring lactate dehydrogenase released by damaged or destroyed cells into the extracellular fluid.
To examine the role of NO in other forms of glutamate neurotoxicity, the effects of NO2 Arg cytotoxicity induced by quisqualate, kainate, and NMDA were compared. […] Data are means ±SEM (n=6-24). Cell death was determined by 0.4% trypan blue exclusion by viable cells.

NOS = conditions: cited from earlier work
cGMP formation = cGMP formation in cortical cell cultures (RIA); assay type: cell-based, rat; conditions: for effect on NMDA stimulation of cGMP formation: 300 μM NMDA (plus 10 μM glycine), 1 minute, 100 μM NO2 Arg, 1 mM L-Arg, 100 units of SOD, 500 μM Hb
Description: Primary dissociated cell cultures were prepared from fetal rats (13-to 14-day gestation for cortex and caudate-putamen cultures and 19- to 20-day gestation for hippocampal cultures). […] Dissociated cells were plated at a density of 3-4×10^5 cells per well in polyornithine-coated 15-mm multiwell plates. After 4 days the cells were treated with 10 μg of 5-fluoro-2'-deoxyuridine to prevent proliferations of noneuronal cells. Cells were maintained in MEM/5% horse serum/2 mM glutamine in 8% CO2 /humidified atmosphere at 37° C. The medium was changed twice weekly. Mature neurons (3-4 weeks) were used.
For determination of cGMP the cells were washed three times with CSS. […] After ether extraction, cGMP levels were determined by RIA.
Data are means ±SEM (n=6-8).
Data are means ±SEM (n=8-12).

cortical cell cultures [5] = conditions: Koh et al. (1990); cited from earlier work

Sequence of brain NOS (cerebellar NOS) (P29476 whole entry): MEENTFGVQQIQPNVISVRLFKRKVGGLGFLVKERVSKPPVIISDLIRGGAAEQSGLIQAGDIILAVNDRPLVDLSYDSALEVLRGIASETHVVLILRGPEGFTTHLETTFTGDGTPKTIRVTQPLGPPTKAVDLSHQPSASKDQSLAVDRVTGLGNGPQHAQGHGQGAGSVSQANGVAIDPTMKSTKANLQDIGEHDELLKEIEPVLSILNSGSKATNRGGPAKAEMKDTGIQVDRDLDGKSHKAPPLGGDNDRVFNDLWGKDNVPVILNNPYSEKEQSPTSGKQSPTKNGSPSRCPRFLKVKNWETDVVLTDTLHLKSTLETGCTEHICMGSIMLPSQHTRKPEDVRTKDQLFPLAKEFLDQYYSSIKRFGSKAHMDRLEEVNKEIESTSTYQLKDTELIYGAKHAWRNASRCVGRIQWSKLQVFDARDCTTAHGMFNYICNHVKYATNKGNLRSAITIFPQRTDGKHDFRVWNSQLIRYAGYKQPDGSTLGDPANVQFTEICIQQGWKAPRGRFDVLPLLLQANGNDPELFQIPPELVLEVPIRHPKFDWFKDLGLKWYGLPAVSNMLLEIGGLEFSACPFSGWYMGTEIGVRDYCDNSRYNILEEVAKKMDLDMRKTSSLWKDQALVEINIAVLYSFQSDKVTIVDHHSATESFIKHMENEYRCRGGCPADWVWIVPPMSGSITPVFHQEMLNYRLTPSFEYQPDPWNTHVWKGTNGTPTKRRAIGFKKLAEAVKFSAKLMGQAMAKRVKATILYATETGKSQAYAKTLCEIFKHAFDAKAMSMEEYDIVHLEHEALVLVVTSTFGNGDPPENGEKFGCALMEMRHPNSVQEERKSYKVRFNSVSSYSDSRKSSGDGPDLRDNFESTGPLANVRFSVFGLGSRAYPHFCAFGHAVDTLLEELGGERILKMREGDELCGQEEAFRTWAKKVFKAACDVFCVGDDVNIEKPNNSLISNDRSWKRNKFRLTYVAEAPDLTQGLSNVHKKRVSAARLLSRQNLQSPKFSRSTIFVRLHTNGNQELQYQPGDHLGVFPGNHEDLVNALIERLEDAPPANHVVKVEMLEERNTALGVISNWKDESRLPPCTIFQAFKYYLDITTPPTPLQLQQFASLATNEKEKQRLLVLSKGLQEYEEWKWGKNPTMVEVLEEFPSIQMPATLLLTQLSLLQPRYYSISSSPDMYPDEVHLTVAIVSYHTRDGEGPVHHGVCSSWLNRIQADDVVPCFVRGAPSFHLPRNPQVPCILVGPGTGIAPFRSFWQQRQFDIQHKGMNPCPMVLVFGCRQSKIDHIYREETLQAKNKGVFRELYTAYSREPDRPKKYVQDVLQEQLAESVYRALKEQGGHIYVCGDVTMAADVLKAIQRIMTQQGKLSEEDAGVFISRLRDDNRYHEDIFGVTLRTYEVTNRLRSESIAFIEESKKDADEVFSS

inhibition of brain NOS, in words [1]: inactive against the brain NOS
inhibition of macrophage enzyme, in words [2]: potent inhibitors
Compound: N=C(N)NCCCCC(=O)O [5-GPA, 5-guanidinopentanoic acid]
selectivity between brain and macrophage enzyme, in words [3]: good selectivity toward the macrophage enzyme

inhibition of brain NOS, in words [1]: inactive against the brain NOS
inhibition of macrophage enzyme, in words [2]: potent inhibitors
Compound: N=C(N)NCCCCCC(=O)O [6-GHA, 6-guanidinohexanoic acid]
selectivity between brain and macrophage enzyme, in words [3]: good selectivity toward the macrophage enzyme

Compound: N=C(N)NCCC[C@@H](N)C(=O)O [D-Arg, D-arginine]
reversal of NO2 Arg protection from NMDA cytotoxicity (cortical cell cultures [4]): much weaker than L-Arg; also recorded: comparable to that obtained with 10 μM L-Arg

Compound: N=C(N)NCCCC[C@H](N)C(=O)O [Homoarginine, homoarginine]
affinity for NOS (NOS; Knowles et al. (1989)): less affinity for NOS than L-Arg
reversal of NO2 Arg protection from NMDA cytotoxicity (cortical cell cultures [4]): reverses effects of NO2 Arg but is less potent than L-Arg

Compound: N=C(N)NCCC[C@H](N)C(=O)O [L-Arg, L-arginine]
effect on NMDA stimulation of cGMP formation (cGMP formation): competitively reversible by L-Arg
reversal of NO2 Arg protection from NMDA cytotoxicity (cortical cell cultures [4]): reverses the inhibition by 100 μM NO2 Arg
reversal of NO2 Arg protection from NMDA cytotoxicity (cortical cell cultures [4]; listed as L-arginine): competitively reversed by L-arginine
reversal of NO2 Arg protection from NMDA cytotoxicity (cortical cell cultures [4]; listed as L-arginine (L-Arg)): completely reverses the effect of NO2 Arg
concentration required to obtain maximal NMDA effects (cortical cell cultures [4]; graded L-Arg added to L-Arg-free medium): 100 µM
protection against quisqualate-induced cell death (cortical cell cultures [4]; quisqualate): reversal by L-Arg

Compound: CNC(=N)NCCC[C@H](N)C(=O)O [MeArg, L-N^ω -monomethylarginine]
Ki (NOS; Dwyer et al. (1991), read-out: Ki, inhibition of NOS activity of purified enzyme preparations): 2 µM
relative potency as inhibitor of NOS activity ([1]; cerebellar supernatant preparations, FIG. 1): NO2 Arg is a more potent inhibitor of NOS activity than MeArg
prevention of neurotoxicity, in words (cortical cell cultures [4]): prevent neurotoxicity in proportion to their relative potencies as NOS inhibitors
EC50 (cortical cell cultures [4]; Rattus norvegicus, NMDA and related excitatory amino acids, read-out: EC50 for preventing neurotoxicity elicited by N-methyl-D-aspartate): 170 µM
EC50 (cortical cell cultures [4]; Rattus norvegicus, NMDA, read-out: concentration giving 50% prevention of NMDA-induced cell death): 170 µM

Compound: CN[C@H](CC(=O)O)C(=O)O [NMDA, N-methyl-D-aspartate]
CC50 (cortical cell cultures [4]; Rattus norvegicus, 5 min, read-out: toxic LD50): 280 µM
cytotoxicity at 300 µM (cortical cell cultures [4]; Rattus norvegicus, 5 min, 300 μM, 5 minutes, read-out: cell death at 300 μM NMDA): 60%
cytotoxicity at 300 µM (cortical cell cultures [4]; Rattus norvegicus, 300 μM NMDA + 10 μM glycine alone, read-out: Cell death, % ± SEM (NMDA)): 57.8 ± 2.6%
CC50 (cortical cell cultures [4]; Rattus norvegicus, arginase-treated preparations / L-Arg-free medium, read-out: 50% lethal concentration): 7500 µM
increase of the 50% lethal concentration of NMDA (cortical cell cultures [4]; arginase-treated preparations / L-Arg-free medium): > 20 fold

Compound: N[C@@H](CCC(=O)O)C(=O)O [glutamate]
Cell death, % ± SEM (glutamate) (cortical cell cultures [4]; 500 μM glutamate alone): 48.4 ± 4.4%

Compound: C=C(C)[C@H]1CN[C@H](C(=O)O)[C@H]1CC(=O)O [kainate]
neurotoxic action relative to NMDA (cortical cell cultures [5]): act more slowly and less potently than NMDA
cytotoxicity at 100 µM (cortical cell cultures [4]; Rattus norvegicus, read-out: Cell death, % ± SEM (kainate)): 81.4 ± 7.1%

Compound: N[C@@H](Cn1oc(=O)[nH]c1=O)C(=O)O [quisqualate]
neurotoxic action relative to NMDA (cortical cell cultures [5]): act more slowly and less potently than NMDA
cytotoxicity at 500 µM (cortical cell cultures [4]; Rattus norvegicus, 500 μM quisqualate alone, read-out: Cell death, % ± SEM (quisqualate)): 64.2 ± 3.7%

Compound: Hb: reduced hemoglobin (Hb), which binds NO
effect on NMDA stimulation of cGMP formation (cGMP formation): antagonized
effect on cGMP levels in cortical cells (SNP) (cGMP formation; SNP, 1-minute exposure): blocked by Hb; also recorded: completely reverses SNP-mediated cytotoxicity and cGMP formation
effect on NMDA-induced cell death (cortical cell cultures [4]): completely prevents NMDA-induced cell death; also recorded: reverses cell death
effect on NMDA-induced cell death (cortical cell cultures [4]; listed as Hemoglobin): prevents neurotoxic effects of both N-methyl-D-aspartate and sodium nitroprusside
effect on SNP-induced cell death (cortical cell cultures [4]): completely prevents SNP-induced cell death; also recorded: completely reverses SNP-mediated cytotoxicity
effect on SNP-induced cell death (cortical cell cultures [4]; listed as Hemoglobin): prevents neurotoxic effects of both N-methyl-D-aspartate and sodium nitroprusside

From patent publication US5266594A, “Inhibitors of nitric oxide synthase and use thereof to prevent glutamate neurotoxicity” (priority 1992, dated 1993)
